Reference: patent US20210382051A1, “METHODS AND COMPOUND FOR THE IDENTIFICATION AND TREATMENT OF TUBERCULOSIS” (priority 2020, published 2021)

Key:
[1] = system: gamma interferon production in monocyte and/or macrophage primary cell; assay: Production of gamma interferon by cells receiving 90I (FIG. 3); type: cell-based; conditions: compared with positive control PMA-lonomycin combination; ten days assay, single time point drug addition
Source text: FIG. 3 illustrates a graph showing production of gamma interferon by cells receiving 90I compared to other drugs, according to an exemplary embodiment of the present general inventive concept.
Referring to FIG. 3, this assay may underscore 90I's absorptions in a monocyte and/or a macrophage primary cell, such that the anti-pathogenic compound may have stability and longer pharmacokinetic half-life in ten days assay with single time point drug addition.
Moreover, activated CD8+ cells are reported to produce high levels of gamma interferon, which may be involved in the anti-TB immune responses, contributing to both control of bacterial spread and concomitant lymphoid follicular lyses. […] This finding may have a far-reaching implication and relevant in that H2K1001 and/or 90I has the potential in the restoration of immune competence, a strong immune modulator. 90I may be as strong as a vaccine because it may modulate the immune cell signal switch from Th2 to Th1 (i.e. a subset of T lymphocytes that express CD4 and are known as T-helper cells, they produce cytokines, specifically Th1-type cytokines). T-helper subset population Th1 and Th2 subset have been identified in animals and humans based on cytokines secreted. […]

HIV strains = assay: Activity against HIV strains; type: cell-based; conditions: all HIV strains
Source text: (§1) Referring to FIGS. 2A and 2B, an anti-pathogenic agent and/or the anti-pathogenic compound may be identified as 90I (or 90i). The anti-pathogenic compound may be derived from the herbal extract identified as H2K1001. […] The essence of combination drug therapy, HAART regiments, may be its effectiveness against all HIV-1 strains that is potent enough to bring the viral load down to an undetectable level. This may be achieved by combining an RT and a PR combination synergy to affect multiple modes of action.

reverse transcriptase = reverse transcriptase (Human immunodeficiency virus type 1 group M subtype B, UniProt P04585); assay: Effect on reverse transcriptase; type: biochemical, HIV
Source text: as §1

protease (PR) enzyme = protease (PR) enzyme (Human immunodeficiency virus type 1 group M subtype B, UniProt P04585); assay: Effect on protease (PR) enzyme; type: biochemical, HIV
Source text: as §1

O=C(OCCOCCOC(=O)c1ccccc1)c1ccccc1 [90I, diethylene glycol dibenzoate]
amount of gamma interferon produced [1]: equivalent to that of the positive control | potency against HIV strains (HIV strains): highly potent against all HIV strains | effectiveness against reverse transcriptase (reverse transcriptase): potently effective | effectiveness against protease (PR) enzyme (protease (PR) enzyme): potently effective
